# Test results: patent publication US10947252B2, “Inhibitors of KEAP1-Nrf2 protein-protein interaction” (Janssen Pharmaceutica NV, priority 2018, dated 2021)
# Legend:
# [1] = target: Kelch domain of human KEAP1 (321-624 aa) (Homo sapiens (Human), UniProt Q14145); assay: KEAP1 KELCH ThermoFluor binding assay; conditions: KEAP Kelch […], 1,8-ANS, pH 7.0, average of results obtained, read-out: Tf Kd;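 also: Ligand-induced melting temperature shift of E. coli-expressed KEAP1 Kelch protein, Kd estimated from concentration-response curves of ΔTm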
# Kelch domain of human KEAP1 (321-624 aa), sequence (Q14145 321-624): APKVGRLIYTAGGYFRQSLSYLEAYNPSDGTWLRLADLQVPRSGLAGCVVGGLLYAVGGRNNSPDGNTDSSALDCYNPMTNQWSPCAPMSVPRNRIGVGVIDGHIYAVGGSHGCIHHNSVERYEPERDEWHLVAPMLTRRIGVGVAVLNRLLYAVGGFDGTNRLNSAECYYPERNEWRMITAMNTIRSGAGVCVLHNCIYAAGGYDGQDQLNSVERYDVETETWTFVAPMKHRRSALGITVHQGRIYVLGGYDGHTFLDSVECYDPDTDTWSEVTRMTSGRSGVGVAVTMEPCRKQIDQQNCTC
# [2] = test system: Glo-Response ARE-luc2P HEK293 cell line; assay: ARE luciferase reporter cell-based assay; conditions: average of results obtained;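 also: luciferase signal tracks Nrf2 activation of the ARE once compounds disrupt KEAP1-Nrf2 binding, read with One-Glo reagent, DMSO serving as low control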
SMILES,Kd [1] [nM],"EC50 ([2]; Homo sapiens, HEK293, 24 h) [nM]",EC50 ([2]; 24 hours) [nM]
"Cc1cnc2c(c1)S(=O)(=O)N(Cc1cc(C(c3ccc4c(nnn4C4CC4)c3C)C(C)(C)C(=O)O)cnc1C)CC1(CCOCC1)O2 (racemic) [Example 227, (R/S)-3-(1-Cyclopropyl-4-methyl-1H-benzo[d][1,2,3]triazol-5-yl)-2,2-dimethyl-3-(6-methyl-5-((8′-methyl-1′,1′-dioxido-2,3,5,6-tetrahydrospiro[pyran-4,4′-pyrido[2,3-b][1,4,5]oxathiazepin]-2′(3′H)-yl)methyl)pyridin-3-yl)propanoic Acid]",< 1,22,–
"Cc1ccc(C(CC(=O)O)c2ccc3c(nnn3CC3CC3)c2C)cc1CN1C[C@@H]2CCCCN2c2ncccc2S1(=O)=O (mixture of isomers) [Example 231, (R/S)-3-(1-(Cyclopropylmethyl)-4-methyl-1H-benzo[d][1,2,3]triazol-5-yl)-3-(3-(((*S)-5,5-dioxido-7,7a,8,9,10,11-hexahydro-6H-dipyrido[2,1-d:2′,3′-f][1,2,5]thiadiazepin-6-yl)methyl)-4-methylphenyl)propanoic Acid]",< 1,7,–
"Cc1ccc(C(CC(=O)O)c2ccc3c(nnn3CC3CC3)c2C)cc1CN1C[C@H]2CCCCN2c2ncccc2S1(=O)=O (mixture of isomers) [Example 234, (R/S)-3-(1-(Cyclopropylmethyl)-4-methyl-1H-benzo[d][1,2,3]triazol-5-yl)-3-(3-(((*R)-5,5-dioxido-7,7a,8,9,10,11-hexahydro-6H-dipyrido[2,1-d:2′,3′-f][1,2,5]thiadiazepin-6-yl)methyl)-4-methylphenyl)propanoic Acid]",< 1,3.3,–
"CCn1nnc2c(C)c(C(CC(=O)O)c3ccc(C)c(CN4CC5(COC5)Oc5ncccc5S4(=O)=O)n3)ccc21 (racemic) [Example 240, (R/S)-3-(6-((1′,1′-Dioxidospiro[oxetane-3,4′-pyrido[2,3-b][1,4,5]oxathiazepin]-2′(3′H)-yl)methyl)-5-methylpyridin-2-yl)-3-(1-ethyl-4-methyl-1H-benzo[d][1,2,3]triazol-5-yl)propanoic Acid]",< 1,85,–
"CCn1nnc2c(C)c(C(CC(=O)O)c3ccc(C)c(CN4CC5(CC5)Oc5ncccc5S4(=O)=O)n3)ccc21 (racemic) [Example 243, (R/S)-3-(6-((1′,1′-Dioxidospiro[cyclopropane-1,4′-pyrido[2,3-b][1,4,5]oxathiazepin]-2′(3′H)-yl)methyl)-5-methylpyridin-2-yl)-3-(1-ethyl-4-methyl-1H-benzo[d][1,2,3]triazol-5-yl)propanoic Acid]",< 1,35,–
"Cc1cnc2c(c1)S(=O)(=O)N(Cc1cc(C(c3ccn4c(C5CC5)nnc4c3C)C(C)(C)C(=O)O)ccc1C)CC1(CC1)O2 (racemic) [Example 391, (R/S)-3-(3-Cyclopropyl-8-methyl-[1,2,4]triazolo[4,3-a]pyridin-7-yl)-2,2-dimethyl-3-(4-methyl-3-((8′-methyl-1′,1′-dioxidospiro[cyclopropane-1,4′-pyrido[2,3-b][1,4,5]oxathiazepin]-2′(3′H)-yl)methyl)phenyl)propanoic Acid]",< 1,26.7,–
"Cc1cnc2c(c1)S(=O)(=O)N(Cc1cc(C(c3ccc4c(nnn4C4CC4)c3C)C(C)(C)C(=O)O)cnc1C)CC1(CC1)O2 (racemic) [Example 394, (R/S)-3-(1-Cyclopropyl-4-methyl-1H-benzo[d][1,2,3]triazol-5-yl)-2,2-dimethyl-3-(6-methyl-5-((8′-methyl-1′,1′-dioxidospiro[cyclopropane-1,4′-pyrido[2,3-b][1,4,5]oxathiazepin]-2′(3′H)-yl)methyl)pyridin-3-yl)propanoic Acid]",< 1,40.1,–
"Cc1ccc(C(CC(=O)O)c2ccc3c(nnn3C3CC3)c2C)cc1CN1C[C@@H]2CCCCN2c2ncccc2S1(=O)=O (mixture of isomers) [Example 397, (R/S)-3-(1-Cyclopropyl-4-methyl-1H-benzo[d][1,2,3]triazol-5-yl)-3-(3-(((*S)-5,5-dioxido-7,7a,8,9,10,11-hexahydro-6H-dipyrido[2,1-d:2′,3′-f][1,2,5]thiadiazepin-6-yl)methyl)-4-methylphenyl)propanoic Acid]",< 1,11,–
"CCn1nnc2c(C)c(C(CC(=O)O)c3ccc(C)c(CN4CC5(CCOCC5)Oc5ccc(F)cc5S4(=O)=O)n3)ccc21 (racemic) [Example 417, 3-(1-Ethyl-4-methyl-1H-benzo[d][1,2,3]triazol-5-yl)-3-(6-((8-fluoro-1,1-dioxido-2′,3′,5′,6′-tetrahydrospiro[benzo[b][1,4,5]oxathiazepine-4,4′-pyran]-2(3H)-yl)methyl)-5-methylpyridin-2-yl)propanoic acid]",< 1,1.77,–
"Cc1ccc(C(CC(=O)O)c2ccn3c(C(F)(F)F)nnc3c2C)nc1CN1CC2(CC2)Oc2ncccc2S1(=O)=O (racemic) [Example 481, (R/S)-3-(6-((1′,1′-Dioxidospiro[cyclopropane-1,4′-pyrido[2,3-b][1,4,5]oxathiazepin]-2′(3′H)-yl)methyl)-5-methylpyridin-2-yl)-3-(8-methyl-3-(trifluoromethyl)-[1,2,4]triazolo[4,3-a]pyridin-7-yl)propanoic Acid]",< 1,1290,–
"Cc1cnc2c(c1)S(=O)(=O)N(Cc1cc(C(c3ccn4c(C(F)F)nnc4c3C)C(C)(C)C(=O)O)ccc1C)CC1(CCOCC1)O2 (racemic) [Example 575, (R/S)-3-(3-(Difluoromethyl)-8-methyl-[1,2,4]triazolo[4,3-a]pyridin-7-yl)-2,2-dimethyl-3-(4-methyl-3-((8′-methyl-1′,1′-dioxido-2,3,5,6-tetrahydrospiro[pyran-4,4′-pyrido[2,3-b][1,4,5]oxathiazepin]-2′(3′H)-yl)methyl)phenyl)propanoic Acid]",< 1,6.62,–
"Cc1cnc2c(c1)S(=O)(=O)N(Cc1cc(C(c3ccn4c(C(F)(F)F)nnc4c3C)C(C)(C)C(=O)O)cnc1C)CC1(CCOCC1)O2 (racemic) [Example 584, (R/S)-2,2-Dimethyl-3-(8-methyl-3-(trifluoromethyl)-[1,2,4]triazolo[4,3-a]pyridin-7-yl)-3-(6-methyl-5-((8′-methyl-1′,1′-dioxido-2,3,5,6-tetrahydrospiro[pyran-4,4′-pyrido[2,3-b][1,4,5]oxathiazepin]-2′(3′H)-yl)methyl)pyridin-3-yl)propanoic Acid]",< 1,478,–
"Cc1cnc2c(c1)S(=O)(=O)N(Cc1cc(C(c3ccn4c(C(F)(F)F)nnc4c3C)C(C)(C)C(=O)O)ncc1C)CC1(CC1)O2 (racemic) [Example 587, (R/S)-2,2-Dimethyl-3-(8-methyl-3-(trifluoromethyl)-[1,2,4]triazolo[4,3-a]pyridin-7-yl)-3-(5-methyl-4-((8′-methyl-1′,1′-dioxidospiro[cyclopropane-1,4′-pyrido[2,3-b][1,4,5]oxathiazepin]-2′(3′H)-yl)methyl)pyridin-2-yl)propanoic Acid]",< 1,17.4,–
"Cc1ccc([C@@H](CC(=O)O)c2ccc3c(nnn3CC3CC3)c2C)cc1CN1C[C@]2(C)CCCN2c2ncccc2S1(=O)=O (relative stereo) [Example 11, 3-(1-(Cyclopropylmethyl)-4-methyl-1H-benzo[d][1,2,3]triazol-5-yl)-3-(4-methyl-3-(((*S)-7a-methyl-5,5-dioxido-7a,8,9,10-tetrahydropyrido[2,3-f]pyrrolo[2,1-d][1,2,5]thiadiazepin-6(7H)-yl)methyl)phenyl)propanoic Acid]",0.024,4.2,–
"Cc1ccc([C@H](c2cc(C)n3c(C(F)(F)F)nnc3c2C)C(C)C(=O)O)cc1CN1C[C@@H]2CCCCN2c2ncccc2S1(=O)=O (relative stereo) [Example 133, (3*R)-3-(5,8-Dimethyl-3)-(trifluoromethyl)-[1,2,4-triazolo[4,3-a]pyridine-7-yl)-3-(3-(((*S)-5,5-dioxido-7,7a,8,9,10,11-hexahydro-6H-dipyrido[2,1-d:2′,3′-f][1,2,5]thiadiazepin-6-yl)methyl)-4-methylphenyl)-2-methylpropanoic Acid]",< 1,2,–
"Cc1ccc([C@@H](c2cc(C)n3c(C(F)(F)F)nnc3c2C)C(C)C(=O)O)cc1CN1C[C@@H]2CCCCN2c2ncccc2S1(=O)=O (relative stereo) [Example 134, (3*S)-3-(5,8-Dimethyl-3)-(trifluoromethyl)-[1,2,4-triazolo[4,3-a]pyridine-7-yl)-3-(3-(((*S)-5,5-dioxido-7,7a,8,9,10,11-hexahydro-6H-dipyrido[2,1-d:2′,3′-][1,2,5]thiadiazepin-6-yl)methyl)-4-methylphenyl)-2-methylpropanoic Acid]",< 1,61.3,–
"Cc1ccc([C@H](CC(=O)O)c2cc(OC(F)F)c3c(c2)nnn3C)cc1CN1C[C@H]2CCCN2c2ncccc2S1(=O)=O (relative stereo) [Example 247, (*S)-3-(7-(Difluoromethoxy)-1-methyl-1H-benzo[d][1,2,3]triazol-5-yl)-3-(3-(((R)-5,5-dioxido-7a,8,9,10-tetrahydropyrido[2,3-f]pyrrolo[2,1-d][1,2,5]thiadiazepin-6(7H)-yl)methyl)-4-methylphenyl)propanoic Acid]",< 1,–,225
"Cc1ccc([C@H](CC(=O)O)c2cc(OC(F)F)c3c(c2)nnn3C)cc1CN1C[C@H]2CCCCN2c2ncccc2S1(=O)=O (single isomer, unassigned) [Example 2, (*S)-3-(7-(Difluoromethoxy)-1-methyl-1H-benzo[d][1,2,3]triazol-5-yl)-3-(3-(((*R)-5,5-dioxido-7,7a,8,9,10,11-hexahydro-6H-dipyrido[2,1-d:2′,3′-f][1,2,5]thiadiazepin-6-yl)methyl)-4-methylphenyl)propanoic Acid]",0.162,180,–
